Assay results: PMC5026167, “Characterizing Active Site Conformational Heterogeneity along the Trajectory of an Enzymatic Phosphoryl Transfer Reaction” (Angewandte Chemie (International Ed. in English), 2016)
Like-named read-outs stand apart in the source and are kept apart here.

Key:
UmpK (UMP/CMP kinase) [1] = target: T1, UmpK (UMP/CMP kinase) (Dictyostelium discoideum, UniProt P20425); assay: stopped-flow nucleotide exchange with MANT-AP5A-MANT; type: binding; conditions: dissociation rate of ADP and UMP together, no metal fluoride
T1 construct: gene pyrK; recombinant, expressed and purified as in Supporting Information; details not in main text
T1 sequence (P20425 whole entry): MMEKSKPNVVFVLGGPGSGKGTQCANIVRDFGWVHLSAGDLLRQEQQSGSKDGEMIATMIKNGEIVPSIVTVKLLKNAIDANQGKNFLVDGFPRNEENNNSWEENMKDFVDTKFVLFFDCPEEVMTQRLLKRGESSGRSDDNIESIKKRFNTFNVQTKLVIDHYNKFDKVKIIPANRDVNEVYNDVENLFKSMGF

UmpK (UMP/CMP kinase) [2] = target: T1, UmpK (UMP/CMP kinase); assay: biochemical; parameters: fluorescence titration, equilibrium binding / displacement of fluorescent MANT-ADP
Source text: First, we defined and characterized stable states along the reaction coordinate (Supporting Information). One reference state is nucleotide‐free (apo) UmpK (Figure 1 a), where the catalytic side‐chains are expected to be very flexible because of the absence of any ligand, thus giving an indication of the upper limit of conformational entropy. An ideal reference for a substrate/product‐bound state is provided by UmpK in complex with the bi‐substrate inhibitor AP5U (Supporting Information; Figure 1 b), where a phosphate group covalently links ATP and UMP such that nucleotide‐like binding occurs but without turnover.11 The overall structure of UmpK in complex with AP5U is essentially identical to other nucleotide‐bound structures available (Figure 1 b). Despite minor differences in the lid loop conformation and the aliphatic part of the R137 side‐chain, the position of the central guanidino groups is nearly identical. […] The transition state of the phosphoryl transfer reaction is well‐represented by UmpK in complex with the TSA formed by ADP, UMP/CMP and an AlFx molecule that mimics the phosphoryl group being transferred (Figure 1 c).7 To further confirm the formation of a stable complex that captures the transition state structure, we performed functional studies including nucleotide exchange kinetics measurements in the presence and absence of aluminium fluoride (Figures 1 f and S1/S2, Table S1).  Figure 1 a) Nucleotide‐free UmpK (H. sapiens, PDB: 1TEV10). b) Overlay of UmpK in complex with the bi‐substrate inhibitor AP5U, (red, D. discoideum, PDB: 1UKE11), and in complex with ADP and CMP (orange, D. discoideum, PDB: 2UKD7). c) UmpK in complex with the TSA ADP:AlFx:CMP (D. discoideum, PDB: 3UKD7). In (a–c) arginine side‐chains are shown in yellow (numbering refers to UmpK from D. discoideum). d) Schematic representation of the reaction catalyzed by UmpK and the states studied here: nucleotide‐free (green), substrate/product‐bound (red), and the transition state (blue). e) AP5U binding to UmpK monitored by equilibrium displacement of fluorescent MANT‐ADP. Binding of AP5U (K D≤1.0 nM) generates a stable substrate/product‐like state. f) Nucleotide exchange kinetics measured by stopped flow. UmpK incubated with UMP and ADP in the presence of 0.5 mM AlFx (blue), 3 mM MgFx (grey) or in the absence of any fluoride (red) was mixed rapidly with the competing ligand MANT‐AP5A‐MANT. […] 3 Materials and Methods: 1. Mutagenesis, protein expression and purification: Arginine to lysine mutations were introduced into UmpK from Dictyostelium discoideum using the QuikChange® protocol. DNA sequencing was performed to verify the eight introduced mutations. Unlabeled [U-1 H,12C,14N] UmpK was expressed in LB medium, uniformly 15N-/ 13C-labeled [U-13C,15N] UmpK was expressed in M9 minimal medium using 2 g/L U-13C-glucose and 1 g/L 15NH4Cl as the sole carbon and nitrogen sources, respectively. Selectively labelled [13C,15N-Arg; U-12C,14N] UmpK and [13C,15N-Arg+Lys; U-12C,14N] UmpK with only (i) arginine residues or (ii) lysine and arginine residues isotopically labelled, respectively, were expressed in M9 minimal medium supplemented (i) 100 mg/L 15N-/ 13C-arginine or (ii) 100 mg/L 15N-/ 13C-arginine and 15N-/ 13C-lysine. All UmpK variants were purified as described previously using Blue Sepharose affinity chromatography and SourceQ anion exchange chromatography.

UmpK (UMP/CMP kinase) [3] = target: T1, UmpK (UMP/CMP kinase); assay: biochemical; parameters: fluorescence titration of nucleotide binding to UmpK (MANT-ADP fluorescence / displacement); conditions: Mg-free
Source text: First, we defined and characterized stable states along the reaction coordinate (Supporting Information). One reference state is nucleotide‐free (apo) UmpK (Figure 1 a), where the catalytic side‐chains are expected to be very flexible because of the absence of any ligand, thus giving an indication of the upper limit of conformational entropy. An ideal reference for a substrate/product‐bound state is provided by UmpK in complex with the bi‐substrate inhibitor AP5U (Supporting Information; Figure 1 b), where a phosphate group covalently links ATP and UMP such that nucleotide‐like binding occurs but without turnover.11 The overall structure of UmpK in complex with AP5U is essentially identical to other nucleotide‐bound structures available (Figure 1 b). Despite minor differences in the lid loop conformation and the aliphatic part of the R137 side‐chain, the position of the central guanidino groups is nearly identical. […] The transition state of the phosphoryl transfer reaction is well‐represented by UmpK in complex with the TSA formed by ADP, UMP/CMP and an AlFx molecule that mimics the phosphoryl group being transferred (Figure 1 c).7 To further confirm the formation of a stable complex that captures the transition state structure, we performed functional studies including nucleotide exchange kinetics measurements in the presence and absence of aluminium fluoride (Figures 1 f and S1/S2, Table S1).  Figure 1 a) Nucleotide‐free UmpK (H. sapiens, PDB: 1TEV10). b) Overlay of UmpK in complex with the bi‐substrate inhibitor AP5U, (red, D. discoideum, PDB: 1UKE11), and in complex with ADP and CMP (orange, D. discoideum, PDB: 2UKD7). c) UmpK in complex with the TSA ADP:AlFx:CMP (D. discoideum, PDB: 3UKD7). In (a–c) arginine side‐chains are shown in yellow (numbering refers to UmpK from D. discoideum). d) Schematic representation of the reaction catalyzed by UmpK and the states studied here: nucleotide‐free (green), substrate/product‐bound (red), and the transition state (blue). e) AP5U binding to UmpK monitored by equilibrium displacement of fluorescent MANT‐ADP. Binding of AP5U (K D≤1.0 nM) generates a stable substrate/product‐like state. f) Nucleotide exchange kinetics measured by stopped flow. UmpK incubated with UMP and ADP in the presence of 0.5 mM AlFx (blue), 3 mM MgFx (grey) or in the absence of any fluoride (red) was mixed rapidly with the competing ligand MANT‐AP5A‐MANT.

[4] = 5 mM MgCl2, alone, read-out: UmpK wild-type (5 mM MgCl2) Alone
[5] = with CMP, 5 mM MgCl2, 250 uM second nucleotide present, read-out: UmpK wild-type (5 mM MgCl2) in the presence of 250 uM second nucleotide
[6] = with ADP, 5 mM MgCl2, 250 uM second nucleotide present, read-out: UmpK wild-type (5 mM MgCl2) in the presence of 250 uM second nucleotide
[7] = with 250 uM ADP, read-out: wild-type (Mg-free) in presence of 250 uM ADP

Compound | k fast (UmpK (UMP/CMP kinase) [1]; ADP present) | Kd (UmpK (UMP/CMP kinase) [2]; [4]) | Kd (UmpK (UMP/CMP kinase) [2]; [5]) | Kd (UmpK (UMP/CMP kinase) [3]; with 250 uM CDP, read-out: wild-type (Mg-free) in presence of 250 uM CDP) | k fast (UmpK (UMP/CMP kinase) [1]; UMP present) | Kd (UmpK (UMP/CMP kinase) [2]; [6]) | Kd (UmpK (UMP/CMP kinase) [3]; [7]) | Kd (UmpK (UMP/CMP kinase) [3]; with 250 uM CMP, read-out: wild-type (Mg-free) in presence of 250 uM CMP)
O=c1ccn([C@@H]2O[C@H](COP(=O)(O)O)[C@@H](O)[C@H]2O)c(=O)[nH]1 [UMP] | ~ 60 s^-1 | – | – | – | – | – | – | –
Nc1ncnc2c1ncn2[C@@H]1O[C@H](COP(=O)(O)OP(=O)(O)O)[C@@H](O)[C@H]1O [ADP] | – | 80 ± 2 µM | 10 ± 1 µM | 49 ± 0.5 µM | ~ 60 s^-1 | – | – | –
O=c1ccn([C@@H]2O[C@H](COP(=O)(O)OP(=O)(O)O)[C@@H](O)[C@H]2O)c(=O)[nH]1 [UDP] | – | 600 ± 70 µM | – | – | – | 60 ± 14 µM | 400 ± 45 µM | –

Results, then the compound that gave them:

k fast (UmpK (UMP/CMP kinase) [1]; ADP present) | Kd (UmpK (UMP/CMP kinase) [2]; [4]) | Kd (UmpK (UMP/CMP kinase) [2]; [5]) | Kd (UmpK (UMP/CMP kinase) [3]; with 250 uM CDP, read-out: wild-type (Mg-free) in presence of 250 uM CDP) | k fast (UmpK (UMP/CMP kinase) [1]; UMP present) | Kd (UmpK (UMP/CMP kinase) [2]; [6]) | Kd (UmpK (UMP/CMP kinase) [3]; [7]) | Kd (UmpK (UMP/CMP kinase) [3]; with 250 uM CMP, read-out: wild-type (Mg-free) in presence of 250 uM CMP) | Compound
– | 51 ± 2 µM | 7.3 ± 0.4 µM | – | – | – | – | 68 ± 3 µM | Nc1ncnc2c1ncn2[C@@H]1O[C@H](COP(=O)(O)OP(=O)(O)OP(=O)(O)O)[C@@H](O)[C@H]1O [ATP]
– | 66 ± 11 µM | – | – | – | 17 ± 3 µM | 64 ± 6 µM | – | Nc1ccn([C@@H]2O[C@H](COP(=O)(O)OP(=O)(O)O)[C@@H](O)[C@H]2O)c(=O)n1 [CDP]
– | 77 ± 11 µM | – | – | – | 23 ± 3 µM | 205 ± 20 µM | – | Nc1ccn([C@@H]2O[C@H](COP(=O)(O)O)[C@@H](O)[C@H]2O)c(=O)n1 [CMP]
